Data set [1] addresses 5-hydroxytryptamine receptor 6 (Homo sapiens) (UniProt P50406). Conditions: CHO-K1, filed as antagonist, time 1.0 hrs.
For data set [2], the species on record is Rattus norvegicus. Conditions: in vivo, ip, 10 min.
Data set [3] is filed under the species Rattus norvegicus. The data set is described as follows: animal or person. To be noted: Wistar, ip, read-out: MED.

5-hydroxytryptamine receptor 6 (Homo sapiens), sequence (P50406 whole entry): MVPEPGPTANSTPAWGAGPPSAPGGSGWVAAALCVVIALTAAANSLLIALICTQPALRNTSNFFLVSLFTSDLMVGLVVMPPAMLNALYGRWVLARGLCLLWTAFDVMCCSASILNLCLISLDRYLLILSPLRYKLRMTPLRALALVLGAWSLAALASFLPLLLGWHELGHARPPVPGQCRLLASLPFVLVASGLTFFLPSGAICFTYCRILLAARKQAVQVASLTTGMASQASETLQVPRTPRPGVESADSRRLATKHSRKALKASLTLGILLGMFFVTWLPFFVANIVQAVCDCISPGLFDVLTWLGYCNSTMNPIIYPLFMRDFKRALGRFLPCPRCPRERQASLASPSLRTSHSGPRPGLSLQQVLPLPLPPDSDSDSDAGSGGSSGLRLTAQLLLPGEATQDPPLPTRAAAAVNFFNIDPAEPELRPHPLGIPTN

As to `O=S(=O)(c1ccccc1)c1cnc2c(N3CCNCC3)cccc2c1`, the negative logarithm of the Kb (pKb) (usually −log10 of the Kb, conventionally taken in molar units) in data set [1] was 9.47. Take `O=C1CC2(CCCC2)CC(=O)N1CCCCN1CCN(c2ncccn2)CC1` [BUSPIRONE]: the MED in data set [2] amounted to 1 mg/kg. `CC(C)COc1ccc(CNC(=O)N(Cc2ccc(F)cc2)C2CCN(C)CC2)cc1` [PIMAVANSERIN] came in with an MED in data set [2] of 0.1 mg/kg. The minimal effective dose in data set [3] worked out at 0.1 mg/kg. Compound `CN(C)CCCN1c2ccccc2CCc2ccccc21` [IMIPRAMINE] showed an MED in data set [2] of 10 mg/kg. `CN1C(=O)CN=C(c2ccccc2)c2cc(Cl)ccc21` [DIAZEPAM] registered an MED in data set [2] of 3 mg/kg.

The record behind these values is ChEMBL document CHEMBL5046222, “Multifunctional Arylsulfone and Arylsulfonamide-Based Ligands with Prominent Mood-Modulating Activity and Benign Safety Profile, Targeting Neuropsychiatric Symptoms of Dementia” (J Med Chem, 2021).
